The target of one data set is T1, Prolyl oligopeptidase (Homo sapiens, UniProt P48147).
T1 construct: Prolyl oligopeptidase was purified from human platelets; from tissue; host or cells: human platelets
T1 sequence (P48147 1-710): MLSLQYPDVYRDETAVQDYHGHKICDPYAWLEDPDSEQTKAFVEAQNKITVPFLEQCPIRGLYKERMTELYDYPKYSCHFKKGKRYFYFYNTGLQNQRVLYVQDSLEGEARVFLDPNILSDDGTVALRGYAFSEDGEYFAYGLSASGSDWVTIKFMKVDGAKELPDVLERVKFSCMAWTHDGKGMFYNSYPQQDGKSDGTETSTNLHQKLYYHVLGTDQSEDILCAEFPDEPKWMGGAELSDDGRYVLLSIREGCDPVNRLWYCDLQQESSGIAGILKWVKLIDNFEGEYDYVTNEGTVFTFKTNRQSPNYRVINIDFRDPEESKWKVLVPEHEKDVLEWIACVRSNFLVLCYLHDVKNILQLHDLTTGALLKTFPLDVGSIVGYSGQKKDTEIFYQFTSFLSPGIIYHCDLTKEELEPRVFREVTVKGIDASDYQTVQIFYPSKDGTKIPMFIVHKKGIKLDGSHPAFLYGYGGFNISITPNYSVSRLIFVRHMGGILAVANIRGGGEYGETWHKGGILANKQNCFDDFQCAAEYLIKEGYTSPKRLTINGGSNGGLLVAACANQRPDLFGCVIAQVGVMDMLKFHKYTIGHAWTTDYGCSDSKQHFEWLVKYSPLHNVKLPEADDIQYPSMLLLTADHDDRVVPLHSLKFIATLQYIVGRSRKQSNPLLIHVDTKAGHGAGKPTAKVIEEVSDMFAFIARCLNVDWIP
In words: Inhibition of prolyl oligopeptidase (PO), Z-Gly-Pro-AMC substrate. To be noted: PO from human platelets, 20 min at 37° C. The format is biochemical. The protocol: Prolyl oligopeptidase was purified from human platelets and the enzyme activity was measured using Z—Gly—Pro—AMC (4.4 mM) as the substrate in a K-phosphate buffer 100 mM, pH 7.5 containing 1 EM EDTA, 1 mM dithiothreitol and 1 mM NaN3. The incubation was carried out during 20 min at 37° C. The reaction was stopped by the addition of 5 volumes 1.5 M acetic acid. Fluorescence was measured at 370 and 440 nm as excitation and emission wavelengths respectively. The inhibitors were added at concentrations varying between 1 μM and 1 mM.

The next data set can be described thus: in vitro. To be noted: human, plasma.
A further data set has as its target T2, DPP IV (Homo sapiens, UniProt P27487).
T2 construct: DPP IV was purified from human seminal plasma as described previously; from tissue; host or cells: human seminal plasma
In words: biochemical. The format is biochemical. To be noted: for kinact/KI: 0.25 h, pH 8.3, read-out: kcalc (second order rate constant of inactivation). On the procedure: Enzymatic activity was measured at 37° C. in a Spectramax 340 (Molecular Devices) microtiterplate reader using Gly—Pro-p-nitroanilide (Sigma) as a chromogenic substrate. […] The reaction mixture contained 2 mM substrate, approximately 1 mU of DPP IV, 40 EM TRIS-HCl buffer, pH 8.3, and a suitable amount of inhibitor (ranging between 0 an 10 mM) in a total volume of 0.2 ml. Activity measurements were routinely performed in duplicate.
Stock solutions were diluted with 50 mM TRIS-HCl buffer, pH 8.3, as required, immediately before the experiment. […] For a simple pseudo-first order inactivation process, the activity after incubation with inhibitor (vi) varies with the inhibitor concentration (i) as described in the following equation: vi=vo * e-k.i.t, where vo is the activity in absence of inhibitor, k is the second order rate constant of inactivation and t is the time.

Setting [1] is: 15 min pre-incubation with DPP IV at 37° C., average ± standard deviation.

Structures can show the parent of a compound that is named as a salt. Where two headings read alike, the source gives them in different places.

Consider 20 molecules from patent publication US20020061839A1, “Serine peptidase modulators” (priority 1998, published 2002).

In general, IC50 refers to the concentration needed to halve the response being measured. Low readings indicate higher potency, high ones lower potency. As usually defined, the half-life is how long it takes for the measured level to halve. A lower half-life goes with fast loss.

T2 sequence (P27487 whole entry): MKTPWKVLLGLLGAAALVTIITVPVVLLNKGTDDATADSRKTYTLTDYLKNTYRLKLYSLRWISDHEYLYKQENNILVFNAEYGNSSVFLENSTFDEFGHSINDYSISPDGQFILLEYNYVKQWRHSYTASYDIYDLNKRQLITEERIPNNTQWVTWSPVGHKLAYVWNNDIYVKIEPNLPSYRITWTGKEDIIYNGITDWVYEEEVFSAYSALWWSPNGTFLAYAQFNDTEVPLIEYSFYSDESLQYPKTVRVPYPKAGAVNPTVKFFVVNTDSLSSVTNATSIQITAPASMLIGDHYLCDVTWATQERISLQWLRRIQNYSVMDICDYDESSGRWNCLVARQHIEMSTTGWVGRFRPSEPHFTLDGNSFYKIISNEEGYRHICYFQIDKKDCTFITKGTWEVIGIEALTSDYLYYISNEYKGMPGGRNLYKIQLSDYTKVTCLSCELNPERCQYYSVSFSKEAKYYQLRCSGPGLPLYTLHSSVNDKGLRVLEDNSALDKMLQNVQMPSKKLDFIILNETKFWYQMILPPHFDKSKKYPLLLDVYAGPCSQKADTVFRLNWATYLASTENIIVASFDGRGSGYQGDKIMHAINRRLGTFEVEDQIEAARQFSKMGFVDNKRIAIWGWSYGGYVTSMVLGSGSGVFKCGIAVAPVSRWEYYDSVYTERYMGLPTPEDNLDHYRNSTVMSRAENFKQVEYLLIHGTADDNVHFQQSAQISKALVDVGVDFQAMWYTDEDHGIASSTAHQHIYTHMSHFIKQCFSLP

On Prolyl oligopeptidase, `CC(=O)Nc1cccc(OP(=O)(Oc2cccc(NC(C)=O)c2)C2CCCN2C(=O)[C@@H]2CCCN2C(=O)OCc2ccccc2)c1` (mixture of isomers) [10d, Di(3-acetamidophenyl) 1-(benzyloxycarbonyl-(S)-prolyl)-pyrrolidine-2(R,S)-phosphonate] came in with an IC50 of 10 µM.

Consider `CC(=O)Nc1ccc(OP(=O)(Oc2ccc(NC(C)=O)cc2)C2CCCN2C(=O)[C@@H]2CCCN2C(=O)OCc2ccccc2)cc1` (mixture of isomers) [10e, Di(4-acetamidophenyl) 1-(benzyloxycarbonyl-(S)-prolyl)-pyrrolidine-2(R,S)-phosphonate], for which half-maximal inhibition at Prolyl oligopeptidase (IC50) was put at 21 µM.

Take `CS(=O)(=O)Nc1ccc(OP(=O)(Oc2ccc(NS(C)(=O)=O)cc2)C2CCCN2C(=O)[C@@H]2CCCN2C(=O)OCc2ccccc2)cc1` (mixture of isomers) [10f, Di(4-methylsulfonylaminophenyl) 1-(benzyloxycarbonyl-(S)-prolyl)pyrrolidine-2(R,S)-phosphonate]: the IC50 against Prolyl oligopeptidase turned out to be 10 µM.

On to `O=C(CNC(=O)c1ccccc1)Nc1ccc(OP(=O)(Oc2ccc(NC(=O)CNC(=O)c3ccccc3)cc2)C2CCCN2C(=O)[C@@H]2CCCN2C(=O)OCc2ccccc2)cc1` (mixture of isomers) [10h, Di[4-(N-benzoylglycylamino)phenyl]-1-(benzyloxycarbonyl-(S)-prolyl)pyrrolidine-2(R,S)-phosphonate], for which the IC50 against Prolyl oligopeptidase is 12 µM.

For `O=C(CNC(=O)OCc1ccccc1)Nc1ccc(OP(=O)(Oc2ccc(NC(=O)CNC(=O)OCc3ccccc3)cc2)C2CCCN2C(=O)[C@@H]2CCCN2C(=O)OCc2ccccc2)cc1` (mixture of isomers) [10i, Di[4-(N-benzyloxycarbonylglycylamino)phenyl]-1-(benzyloxycarbonyl-(S)-prolyl)pyrrolidine-2(R,S)-phosphonate], it took 15 µM to reach half-maximal inhibition on Prolyl oligopeptidase (IC50).

`COC(=O)[C@H](Cc1ccc(OP(=O)(Oc2ccc(C[C@H](NC(C)=O)C(=O)OC)cc2)C2CCCN2C(=O)[C@@H]2CCCN2C(=O)OCc2ccccc2)cc1)NC(C)=O` (mixture of isomers) [10l, Di{4-[-(S)-(2-methoxycarbonyl-2-acetamido)ethyl]phenyl}1-(benzyloxycarbonyl-(S)-prolyl)pyrrolidine-2(R,S)-phosphonate] came in with an IC50 against Prolyl oligopeptidase of 20 µM.

In the case of `CCOC(=O)CNC(=O)c1ccc(OP(=O)(Oc2ccc(C(=O)NCC(=O)OCC)cc2)C2CCCN2C(=O)[C@@H]2CCCN2C(=O)OCc2ccccc2)cc1` (mixture of isomers) [10n, Di{4-[(ethoxycarbonyl)methylaminocarbonyl]phenyl}1-(benzyloxycarbonyl-(S)-prolyl)-pyrrolidine-2(R,S)-phosphonate], on Prolyl oligopeptidase, the IC50 came to 5 µM.

Molecule `COC(=O)CCNC(=O)c1ccc(OP(=O)(Oc2ccc(C(=O)NCCC(=O)OC)cc2)C2CCCN2C(=O)[C@@H]2CCCN2C(=O)OCc2ccccc2)cc1` (mixture of isomers) [10o, Di{4-[2-(methoxycarbonyl)ethylaminocarbonyl]phenyl}1-(benzyloxycarbonyl-(S)-prolyl)-pyrrolidine-2(R,S)-phosphonate] came in with an IC50 against Prolyl oligopeptidase of 2.8 µM.

On Prolyl oligopeptidase, `CCCNC(=O)c1ccc(OP(=O)(Oc2ccc(C(=O)NCCC)cc2)C2CCCN2C(=O)[C@@H]2CCCN2C(=O)OCc2ccccc2)cc1` (mixture of isomers) [10p, Di[4-(n-propylaminocarbonyl)phenyl]1-(benzyloxycarbonyl-(S)-prolyl)-pyrrolidine-2(R,S)-phosphonate] returned an IC50 of 3.2 µM.

Take `CC(=O)Nc1cccc(OP(=O)(Oc2cccc(NC(C)=O)c2)C2CCCN2C(=O)[C@@H]2CCCN2)c1.Cl` (mixture of isomers) [11d, Di(3-acetamidophenyl) 1-((S)-prolyl)pyrrolidine-2(R,S)-phosphonate hydrochloride]: in “in vitro”, the half-life at 1 mM was found to be 3.67 ± 0.5 h.

For the molecule `CS(=O)(=O)Nc1ccc(OP(=O)(Oc2ccc(NS(C)(=O)=O)cc2)C2CCCN2C(=O)[C@@H]2CCCN2)cc1.Cl` (mixture of isomers) [11f, Di(4-methylsulfonylaminophenyl) 1-((S)-prolyl)-pyrrolidine-2(R,S)-phosphonate hydrochloride], the half-life at 1 mM in the data set “in vitro” is 2.5 ± 0.5 h. Moreover, on DPP IV (DPP IV inhibition), the “potency compared to the diastereoisomeric mixture 5” value is listed as “about 100 times”.

The molecule `NC(=O)Nc1cccc(OP(=O)(Oc2cccc(NC(N)=O)c2)C2CCCN2C(=O)[C@@H]2CCCN2)c1` (mixture of isomers) [11g, Di(3-ureylphenyl) 1-((S)-prolyl)pyrrolidine-2(R,S)-phosphonate hydrochloride] returned a half-life at 1 mM in the data set “in vitro” of 3.5 ± 1.33 h. At DPP IV, the kinact/KI was 330 M⁻¹ s⁻¹. At DPP IV (setting [1]), the IC50 was 2.3 ± 0.3 µM.

With `Cl.O=C(CNC(=O)c1ccccc1)Nc1ccc(OP(=O)(Oc2ccc(NC(=O)CNC(=O)c3ccccc3)cc2)C2CCCN2C(=O)[C@@H]2CCCN2)cc1` (mixture of isomers) [11h, Di[4-(N-benzoylglycylamino)phenyl]-1-((S)-prolyl)pyrrolidine-2(R,S)-phosphonate hydrochloride], the half-life at 1 mM in the data set “in vitro” turned out to be 1.55 ± 0.05 h.

The molecule `Cl.Cl.Cl.NCC(=O)Nc1ccc(OP(=O)(Oc2ccc(NC(=O)CN)cc2)C2CCCN2C(=O)[C@@H]2CCCN2)cc1` (mixture of isomers) [11i, Di[4-(N-glycylamino)phenyl]-1-((S)-prolyl)-pyrrolidine-2(R,S)-phosphonate trihydrochloride] returned a half-life at 1 mM in “in vitro” of 0.467 ± 0.05 h.

Molecule `C[C@H](N)C(=O)Nc1ccc(OP(=O)(Oc2ccc(NC(=O)[C@H](C)N)cc2)C2CCCN2C(=O)[C@@H]2CCCN2)cc1` (mixture of isomers) [11j, Di(4-(S)-alanylaminophenyl)-1-((S)-prolyl)pyrrolidine-2(R,S)-phosphonate trihydrochloride] gave a half-life at 1 mM in the data set “in vitro” of 0.133 ± 0.0167 h. For the same molecule, the kinact/KI at DPP IV is 1300 M⁻¹ s⁻¹. The IC50 on DPP IV (setting [1]) was found to be 0.6 ± 0.2 µM.

For `O=C1CC[C@@H](C(=O)Nc2ccc(OP(=O)(Oc3ccc(NC(=O)[C@@H]4CCC(=O)N4)cc3)C3CCCN3C(=O)[C@@H]3CCCN3)cc2)N1` (mixture of isomers) [11k, Di(4-(S)-pyroglutamylaminophenyl)-1-((S)-prolyl)pyrrolidine-2(R,S)-phosphonate hydrochloride], in the data set “in vitro”, the half-life at 1 mM is 2.83 ± 0.5 h. For the same molecule, the kinact/KI at DPP IV was 150 M⁻¹ s⁻¹. Further, it took 5 ± 0.8 µM to reach half-maximal inhibition against DPP IV (setting [1]) (IC50).

As for `COC(=O)CCNC(=O)c1ccc(OP(=O)(Oc2ccc(C(=O)NCCC(=O)OC)cc2)C2CCCN2C(=O)[C@@H]2CCCN2)cc1.Cl` (mixture of isomers) [11o, Di{4-[2-(methoxycarbonyl)ethylaminocarbonyl]phenyl}1-((S)-prolyl)-pyrrolidine-2(R,S)-phosphonate hydrochloride], the half-life at 1 mM in “in vitro” was found to be 0.433 ± 0.0167 h.

For the molecule `CCCNC(=O)c1ccc(OP(=O)(Oc2ccc(C(=O)NCCC)cc2)C2CCCN2C(=O)[C@@H]2CCCN2)cc1.Cl` (mixture of isomers) [11p, Di[4-(n-propylaminocarbonyl)phenyl]1-((S)-prolyl)-pyrrolidine-2(R,S)-phosphonate hydrochloride], in “in vitro”, the half-life at 1 mM worked out at 0.2 ± 0.0167 h.

`COP(=O)(Oc1ccccc1-c1ccccc1O)C1CCCN1C(=O)[C@@H]1CCCN1` (mixture of isomers) [compound 18, 2-(2′-Hydroxyphenyl)phenyl methyl 1-(S)-prolyl)-pyrrolidine-2(R,S)-phosphonate hydrochloride] returned a half-life at 1 mM in “in vitro” of 2.33 ± 1.33 h. Further, on DPP IV, inhibition was half-maximal at 47 µM (IC50) and the kinact/KI is 16 M⁻¹ s⁻¹.

`COC(=O)C(Cc1ccc(OP(=O)(Oc2ccc(CC(NC(C)=O)C(=O)OC)cc2)C2CCCN2C(=O)C2CCCN2)cc1)NC(C)=O` [11l, Di{4-[-(S)-(2-methoxycarbonyl-2-acetamido)ethyl]phenyl}1-((S)-prolyl)pyrrolidine-2-phosphonate hydrochloride] showed a half-life at 1 mM in the data set “in vitro” of 3.17 ± 2.5 h. Moreover, at DPP IV, the IC50 worked out at 1.4 µM and the kinact/KI was 550 M⁻¹ s⁻¹.
